One assay deals with T1, human TRPV2 (Homo sapiens, UniProt Q9Y5S1).
T1 construct: expressed in transfected cells; host or cells: N2a cells
T1 sequence (Q9Y5S1 1-764): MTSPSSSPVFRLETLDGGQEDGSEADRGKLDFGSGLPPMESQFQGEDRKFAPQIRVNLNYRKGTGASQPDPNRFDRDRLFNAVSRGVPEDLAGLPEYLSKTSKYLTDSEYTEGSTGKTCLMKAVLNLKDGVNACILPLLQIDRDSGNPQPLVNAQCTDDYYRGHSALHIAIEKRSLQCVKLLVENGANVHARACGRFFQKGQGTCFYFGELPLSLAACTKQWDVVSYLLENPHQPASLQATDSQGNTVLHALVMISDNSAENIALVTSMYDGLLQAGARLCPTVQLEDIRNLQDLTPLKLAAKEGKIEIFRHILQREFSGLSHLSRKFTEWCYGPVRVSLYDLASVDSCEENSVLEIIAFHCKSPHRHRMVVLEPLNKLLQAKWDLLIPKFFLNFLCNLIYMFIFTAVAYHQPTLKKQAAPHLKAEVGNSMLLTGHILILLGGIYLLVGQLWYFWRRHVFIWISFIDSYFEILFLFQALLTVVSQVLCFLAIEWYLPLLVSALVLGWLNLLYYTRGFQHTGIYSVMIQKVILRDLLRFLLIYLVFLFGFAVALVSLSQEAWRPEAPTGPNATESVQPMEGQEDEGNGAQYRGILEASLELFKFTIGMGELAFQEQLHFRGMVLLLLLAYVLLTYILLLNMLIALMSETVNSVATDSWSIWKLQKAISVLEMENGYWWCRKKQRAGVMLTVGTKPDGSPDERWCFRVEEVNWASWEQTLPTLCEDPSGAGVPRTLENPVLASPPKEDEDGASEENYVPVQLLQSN
Briefly: Ca2+ signal in N2a cells transfected with human TRPV2. The conditions noted are these: stimulation with hypotonicity (260 mosmol/L). The format is cell-based. How it is done: Compounds were tested for their effect on TRPV1, TRPV2, and TRPV3. Methods were similar to those described in Example 15. Briefly, N2a cells were transfected with human TRPV1, TRPV2, or TRPV3. eGFP-transfection was used as control. For specific stimulation of TRPV1, 5 μM capsaicin was used. For stimulation of TRPV2, hypotonicity (260 mosmol/L) was used, based on previous reports of TRPV2 being osmotically responsive. N2a cells were not responsive to hypotonicity, and neither were control-transfected cells. For TRPV3-expressing cells, camphor (20% of a commercially available stock solution) was used. […] Stimulation and control protocols were applied as for TRPA1-expressing N2a cells as detailed above in Example 15.

The next assay has as its system ET1. Put plainly: ET1 expression by UVB-exposed 1° MK (immunocytochemistry). The format is cell-based, mouse. The settings on record: cells preincubated with inhibitor. How it is done:
1° MK were exposed to UVB using the UV optical system (295 nm LED). 24 hours later the cells were fixed and fluorescently immunolabeled for ET1. Digital images were captured and subjected to morphometry.
Mouse keratinocytes were cultured on collagen coated quartz coverslips and then stimulated from the bottom using the previously mentioned UV optical system using the 295 nm LED. 24 hours later the cells were fixed in 4% formaldehyde in PBS for 20 minutes, permeabilized with 0.1% Triton X-100 in PBS for 10 minutes, washed, then blocked in 10% normal goat serum in PBS for 45 minutes. Coverslips were incubated overnight with primary antibody mouse anti-ET1 (1:200; Abcam), washed three times in PBS and incubated with secondary antibody for 2 hours at 25° C. Coverslips were washed three times in PBS, once with double-distilled H2O. Digital images were captured using a 40× immersion lens on the BX61 Olympus upright microscope. Morphometric analysis was conducted using ImageJ freeware with tailored regions-of-interest.

Assay [1] has as its system IL-1β. Briefly: Keratinocyte IL-1β expression in UVB-exposed footpad after topical treatment. The class given is in vivo, mouse. The settings on record: 5 mM GSK205 topical. How it is done:
(§1) GSK205 topical treatment: A viscous solution of 68% EtOH/5% glycerol plus 1 mM or 5 mM GSK205 (none for control) was applied to hindpaws by rubbing in 20 μL, applied at time-points 1 hour and again 10 min before UV exposure.
Routine procedures were followed as described previously (Chen et al., 2009). Mice were perfused transcardially with 30 mL PBS, followed by 30 mL 4% paraformaldehyde. Tissues, including the L5 DRGs (bilateral), and footpad preparations, were dissected and post-fixed in 4% paraformaldehyde. Tissue blocks were further cryoprotected in 30% sucrose in PBS for 24-48 hours. For mouse TRPV4, keratin-specific antibodies, phospho-ERK, IL-6, IL-1β, CXCL5 and caspase-1, tissue was prepared as frozen blocks and subsequently sectioned on a cryostat. For CD68, CD15 (neutrophil elastase) and CD3, mouse skin was prepared by 2% PFA perfusion. […]

In assay [2] the test system is IL-1β. Put plainly: IL-1β secretion by UVB-exposed 1° MK (ELISA). The format is cell-based, mouse. The conditions noted are these: 5 μM GSK205. How it is done: Before UV irradiation, culture media was replaced with PBS. The cells were then irradiated at a dose of 50 mJ/cm^2 with UVB. 24 hours later, supernatants were assayed using IL-1β ELISA (R&D Systems, Minneapolis, Minn.).

Assay [3] is described as follows: Histopathology of UVB-photodermatitis in topically treated paw-pad skin. The format is in vivo, mouse. The settings on record: 5 mM GSK205 topical. Here is the method: as §1

Two compounds from patent US11014896B2, “TRPA1 and TRPV4 inhibitors and methods of using the same for organ-specific inflammation and itch” (Duke University, priority 2014, dated 2021) can be followed below.

“Also recorded” adds a separate entry of the source.

For the compound `CN(CCc1ccc(Nc2nc(-c3ccccc3)cs2)cc1)Cc1ccccc1` [Compound 16-8], the “Ca2+ transience on TRPV2 stimulation” value on human TRPV2 is reported as “not affected”.
Regarding `CN(CCc1ccc(Nc2nc(-c3cccnc3)cs2)cc1)Cc1ccccc1` [GSK205], the ET1 immunoreactivity entry in the assay with ET1 is recorded as “diminished; also recorded: significant down-regulation”. In addition, the “keratinocyte expression of IL-1β in UVB-exposed footpad” value with IL-1β [1] was “failed to upregulate; also recorded: attenuates keratinocyte expression of IL-1β”. Further, the “UVB-induced increase in IL-1β secretion” value in the assay on IL-1β [2] is reported as “completely eliminated; also recorded: prevention of increase in IL-1β secretion”. Also, the “UVB-photodermatitis histopathology (inflammation)” value in assay [3] is “virtual elimination of inflammation; also recorded: markedly reduced inflammatory infiltrate”.
